Data taken from the RepoRT retention time repository (doi:10.1021/acs.analchem.1c00972).
Structures can show the parent of a compound that is named as a salt.

Tests used:
Conditions in all cases: stereoisomer not certain
[1] = RP, Phenomenex Synergi Polar-RP, 100 × 3 mm, 2.5 µm, 40 °C, 0.4 mL/min, estimated dead time 1.1 min; A: water + 1 mM ammonium fluoride; B: methanol + 1 mM ammonium fluoride; C: acetonitrile; D: 50% isopropanol + 50% acetone; gradient (min/%B/%C/%D) 0/5/0/0 2/5/0/0 8/95/0/0 12/80/15/0 19/25/70/0 19.5/0/25/70 21.5/0/25/70 22.5/0/25/0 23/5/0/0
[2] = RP, Waters ACQUITY UPLC BEH C18, 100 × 1 mm, 1.7 µm, 50 °C, 0.3 mL/min, estimated dead time 0.17 min; A: water + 0.1% formic acid + 20 mM ammonium formate; B: methanol + 0.1% formic acid + 20 mM ammonium formate; gradient (min/%B) 0/0 15/100 21/100 22/0 30/0
[3] = RP, Waters ACQUITY UPLC BEH C18, 100 × 1 mm, 1.7 µm, 50 °C, 0.3 mL/min, estimated dead time 0.17 min; A: water + 10 mM ammonium bicarbonate; B: 10% water + 90% methanol + 10 mM ammonium bicarbonate; gradient (min/%B) 0/0 15/100 21/100 22/0 30/0

SMILES	LC retention time [1] [min]	LC retention time [2] [min]	LC retention time [3] [min]
O=C(O)C(F)(F)C(F)(F)C(F)(F)C(F)(F)C(F)(F)C(F)(F)C(F)(F)F [Perfluorooctanoic acid]	8.97	14.7	14.8
O=S(=O)(O)c1ccccc1 [Benzenesulfonic acid]	2.01	2.96	2.77
O=C1NS(=O)(=O)c2ccccc21 [Saccharin]	3.01	5.37	4.9
N#Cc1c(O)c(Cl)c(Cl)c(C#N)c1Cl [Chlorothalonil-4-hydroxy]	9.06	12.3	11.8
CCCCCCCCCCCCOS(=O)(=O)O [Dodecyl sulfate]	9.67	16.2	16.4
N#Cc1nn(-c2c(Cl)cc(C(F)(F)F)cc2Cl)c(N)c1SC(F)(F)F [Fipronil sulfide]	11	15.4	15.8
O=C(O)C(F)(F)C(F)(F)C(F)(F)C(F)(F)C(F)(F)C(F)(F)F [Perfluoroheptanoic acid]	11.3	13.8	13.9
O=C(O)C(F)(F)C(F)(F)C(F)(F)C(F)(F)C(F)(F)F [Perfluorohexanoic acid]	8.19	12.7	12.7
CC(Oc1ccc(Cl)cc1Cl)C(=O)O (stereo not drawn) [Dichlorprop]	8.48	14	11.8
O=[N+]([O-])c1ccc(O)cc1 [4-Nitrophenol]	9.25	9.08	3.3
N#Cc1nn(-c2c(Cl)cc(C(F)(F)F)cc2Cl)c(N)c1S(=O)(=O)C(F)(F)F [Fipronil sulfone]	11.1	15.7	16
